These results are taken from patent publication US20250339389A1, “N-ARACHIDONOYL ETHANOLAMINE COMPOSITION AND USE THEREOF” (NANJING NUTRABUILDING BIO-TECH CO., LTD., priority 2023, published 2025).

Assay [1] deals with Roseburia. The assay is described as follows: Relative abundance of Roseburia in feces of high-fat diet mice (16S rDNA sequencing). The note with it: high-fat+AEA group, AEA 20 mg/kg once a day, four weeks. It counts as in vivo. On the procedure: (§1) After a week of adaptive feeding, mice were randomly divided into three groups according to sex and weight: group 1, normal group, n=10; group 2, high-fat diet group, n=10; and group 3, high-fat diet+AEA group, n=10. The normal group was given normal feed, while the high-fat diet group was given high-fat and high-sugar feed (containing 35% fat, 18% protein and 47% carbohydrate), and the high-fat diet+AEA group was given high-fat and high-sugar feed containing AEA (20 mg/kg), for four weeks. The specific gavage scheme is: calculate and gavage once a day according to the weight of mice, while the normal group gavage with the same amount of normal saline. Four samples of mouse feces were randomly taken from each group. The samples were first extracted for DNA, 16S rDNA was amplified by PCR, and then sequenced, and the relative abundance of each strain was analyzed.
(§2) FIG. 2 is a graph showing changes in the relative abundance of Roseburia. […] FIG. 3 is a graph showing changes in the relative abundance of Bacteroides. […] After AEA treatment, the level of Bacteroides in obese mice induced by high-fat diet increased by 20%. FIG. 4 is a graph showing changes in the relative abundance of Prevotella. […] After AEA treatment, the level of Prevotella in obese mice induced by high-fat diet increased by 25%. FIG. 5 is a graph showing changes in the relative abundance of Salmonella. […]

For assay [2], the system named is mood and depressive behavior. Description: Tail suspension test. It counts as in vivo, C57BL/6J mice. The note with it: AEA 20 mg/kg/day. On the procedure:
(§3) Experimental materials: The experimental animals used in this experiment are male C57BL/6J mice, 6 weeks old, with an initial weight of 18-22 g and SPF grade. The feeding environment of the mice is room temperature of 22±1° C. and humidity of 55±10%, and the mice are fed with normal feed. Mice were randomly divided into blank control group and AEA group, with 10 mice in each group. The AEA group was given a dose of 20 mg/kg/day, while the blank control group was given distilled water of the same volume.
(§4) Experimental method: Tail suspension test and forced swimming test were used to evaluate mood and depressive behavior. Forced swimming test: put a single mouse into a beaker and keep the water temperature at (25±2)° C. The experiment lasted for 6 min, and the immobility time of mice within 4 min was calculated. Tail suspension test: a mouse was fixed at the back ⅓ of the tail end with adhesive tape and hung upside down on an iron bar, with its head 10 cm away from the bottom of the box. The experiment lasted for 6 min, and the immobility time of mice within 4 min was calculated.

The test system of assay [3] is Bacteroides. Description: Relative abundance of Bacteroides in feces of high-fat diet mice (16S rDNA sequencing). The assay is classed as in vivo. The note with it: obese mice induced by high-fat diet, AEA 20 mg/kg once a day, four weeks. On the procedure: as §1, §2
In assay [4] the test system is acute colitis model. The assay is described as follows: DSS-induced acute colitis model, disease activity index (DAI). The note with it: 3% DSS for 9 days, AEA daily dose 2.5 mg/kg; model group close to 3. It counts as in vivo, mice. An excerpt: Experimental method: Thirty 4-6-week-old mice, 15 males and 15 females, were selected for adaptive feeding for 7 days in advance. They were randomly divided into control group (CON), model group (DSS) and administration group (DSS+AEA), with 10 mice in each group. The model group and the administration group were gavaged with 3% dextran sodium sulfate (DSS) for 9 days to establish an acute colitis model, while the control group was gavaged with the same amount of normal saline every day. The weight, feces and rectal bleeding of mice were recorded every day, and the disease activity index (DAI) was used to evaluate the condition of colitis. The DAI value was obtained by adding all the scores and dividing them by three. Mice in the administration group were given AEA at a daily dose of 2.5 mg/kg. On the 10th day, blood was taken from the orbit of each mouse, and then it was killed. Colon tissues were collected, fixed in 4% paraformaldehyde solution and stored at −80° C. for subsequent analysis. The pathological damage of colon tissue was examined by hematoxylin-eosin staining and Alxin blue staining.

The subject of assay [5] is Salmonella. Description: Relative abundance of Salmonella in feces of high-fat diet mice (16S rDNA sequencing). The assay is classed as in vivo. The note with it: obese mice induced by high-fat diet, AEA 20 mg/kg once a day, four weeks. On the procedure: as §1, §2
Assay [6] deals with Prevotella. The assay is described as follows: Relative abundance of Prevotella in feces of high-fat diet mice (16S rDNA sequencing). It counts as in vivo. The note with it: obese mice induced by high-fat diet, AEA 20 mg/kg once a day, four weeks. The protocol:
as §1, §2

Assay [7] relates to mechanical pain sensitivity. The assay is described as follows: SNL model (L5 spinal nerve ligation), Von Frey mechanical pain sensitivity. It counts as in vivo, ICR mice. On the procedure: Experimental material: The experimental animals used in this experiment are male ICR mice, with an initial weight of 30±2 g and SPF grade. The feeding environment of the mice is room temperature of 22±2° C., and the humidity is controlled at 70%-80%. Mice were free to drink water and eat, and fed with normal feed.
Experimental method: Preparation of animal model: Establishment of SNL model of ligation of the fifth spinal nerve on the left lumbar vertebra in mice: After the animals were anesthetized with isoflurane, the L5 transverse process on the left back was exposed, the L5 nerve was dissociated and ligated with No.6 ophthalmic thread, and the wound was treated with penicillin and then sutured. In Sham group, only L5 transverse process was exposed without nerve ligation. After the model was established, the behavior of mice was observed, and the individuals with impaired motor behavior were excluded. […] Grouping and administration: Mice were randomly divided into Sham group, model group and AEA group (20 mg/kg/day), with 8 mice in each group. The three groups were administered by gavage for 16 d, wherein the Sham group and model group were given the same volume of distilled water by gavage. Von Frey method was used to detect the mechanical pain sensitivity of mice: after administration, the mice were placed in an organic glass box in a quiet room to adapt for 1.5 h, so that the mice were in a resting state. Von Frey fibers were used to continuously stimulate the L5 nerve reflex area on the sole of the operated hind limb for 3˜4 s, and the test was conducted for 4 times, with an interval of 5 min each time, and the threshold of 50% mechanical foot retraction of the hind paw was recorded.

Assay [8] has as its system Bacteroides/Firmicutes. The assay is described as follows: Relative abundance ratio of Bacteroides and Firmicutes in feces of high-fat diet mice (16S rDNA sequencing). The note with it: obese mice induced by high-fat diet, AEA 20 mg/kg once a day, four weeks. The assay is classed as in vivo. On the procedure: as §1
Abundance ratio of Bacteroides and Firmicutes: Bacteroides is the representative of intestinal probiotics and Firmicutes is the representative of intestinal harmful bacteria. The higher the ratio, the healthier the intestinal flora is.

Assay [9] has as its system Escherichia coli. Description: Relative abundance of Escherichia coli in feces of high-fat diet mice (16S rDNA sequencing). The assay is classed as in vivo. The note with it: obese mice induced by high-fat diet, AEA 20 mg/kg once a day, four weeks. The protocol: as §1, §2
In assay [10] the test system is mood and depressive behavior. Description: Forced swimming test. The assay is classed as in vivo, C57BL/6J mice. The note with it: AEA 20 mg/kg/day. On the procedure: as §3, §4

Consider `CCCCC/C=C\C/C=C\C/C=C\C/C=C\CCCC(=O)NCCO` [AEA, N-arachidonoyl ethanolamine], for which, in [1], the “level (relative abundance) of Roseburia” value is “close to that in normal mice”. For the same compound, in [2], the “reduction of immobility time compared with the blank group, tail suspension test” value was determined as 28%. In addition, the “increase of level of Bacteroides after AEA treatment” value in assay [3] was determined as 20%. The DAI score result in [4] is “about 2”. In addition, the “decrease of Salmonella level after AEA treatment” value in assay [5] stood at 20%. Also, the “increase of level of Prevotella after AEA treatment” value in assay [6] was 25%. The “threshold of 50% foot contraction” value in [7] (administration 1 d, AEA 20 mg/kg/day by gavage, SNL model 0.005 ± 0.002) was 0.010 ± 0.010; in assay [7] (administration 6 d, AEA 20 mg/kg/day by gavage, SNL model 0.019 ± 0.008) it was 0.067 ± 0.013; in assay [7] (administration 11 d, AEA 20 mg/kg/day by gavage, SNL model 0.018 ± 0.018), 0.133 ± 0.023; in assay [7] (administration 16 d, AEA 20 mg/kg/day by gavage, SNL model 0.020 ± 0.018) it was 0.193 ± 0.002; in assay [7] (before modeling (baseline)) it was 0.323 ± 0.040. Further, in assay [7] (after 6 days of administration, AEA 20 mg/kg/day by gavage), the “threshold of 50% foot contraction compared with the SNL model (in words)” value is “increased significantly”. Further, in [8], the “ratio of Bacteroides/Firmicutes” value is listed as “increased after AEA administration, which was close to the level of normal group”. Moreover, the “decrease of level of Escherichia coli after AEA treatment” value in [9] is 42%. In addition, in assay [10], the “reduction of immobility time compared with the blank group, forced swimming test” value amounted to 23%.
